Laboratory results as given in patent US7169759B1, “Tetrapeptide inhibitors of β-secretase” (Elan Pharmaceuticals, Inc., priority 1999, dated 2007).
pIC50: −log10 of the molar value. *1 amine or outer side, *2 acyl side, *3 side chain or, on linkers, in order; H or OH if unused. Where a SMILES comes first, the peptide text is derived from it. [ ]: non-standard residue; d: D form. The star is where a group is joined. Sta = CC(C)C[C@H](N)[C@@H](O)CC(=O)O; X1 = CC(C)CC(N[*:1])C(O)CC(=O)[*:2]; Phg = N[CH](C(=O)O)c1ccccc1; Isovaleryl = CC(C)CC(=O)*; Boc = CC(C)(C)OC(=O)*

Experiments:
Human brain β-Secretase = molecular target: T1, Human brain β-Secretase (Homo sapiens, UniProt P56817); experiment: MBP-C125 enzyme inhibition assay (ELISA detection of β-secretase cleavage of MBP-C125 substrate); type: biochemical; conditions: pH 4.5, 37° C., 90 minutes, highest concentration 200 μM, read-out: IC50 Group
T1 construct: Human brain β-Secretase from the concentrated HiQ pool prepared Jul; from tissue; host or cells: human brain
T1 sequence (P56817 46-501): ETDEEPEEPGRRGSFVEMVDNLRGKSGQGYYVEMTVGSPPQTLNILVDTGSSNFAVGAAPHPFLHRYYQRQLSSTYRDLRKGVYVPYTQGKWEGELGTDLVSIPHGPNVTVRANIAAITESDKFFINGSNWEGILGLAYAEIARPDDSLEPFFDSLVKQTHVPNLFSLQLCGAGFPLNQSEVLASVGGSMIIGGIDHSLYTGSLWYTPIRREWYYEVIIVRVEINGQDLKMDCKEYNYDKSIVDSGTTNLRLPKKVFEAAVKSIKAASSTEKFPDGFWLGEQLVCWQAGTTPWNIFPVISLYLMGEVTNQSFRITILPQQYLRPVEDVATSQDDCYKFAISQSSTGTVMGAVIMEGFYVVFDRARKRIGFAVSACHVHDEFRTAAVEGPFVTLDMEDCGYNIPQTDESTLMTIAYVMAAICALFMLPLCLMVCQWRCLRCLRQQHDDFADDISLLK
Protocol: Enzyme Inhibition Assay Purpose/Rationale:
The MBP-C125 assay, determines relative inhibition of β-secretase cleavage of an MPB-C125 substrate by the compounds assayed. Human brain β-Secretase from the concentrated HiQ pool prepared Jul. 16, 1997 in 0.20% Triton is used in the assay. Inhibition data was obtained from an ELISA which uses an anti-MBP capture antibody (on precoated and blocked 96-well high binding plates) followed by incubation with diluted enzyme reaction supernatant, incubation with an anti-SW192 specific biotinylated reporter antibody and incubation with streptavidin/alkaline phosphatase. Detection was effected by a fluorescent substrate signal on cleavage by the phosphatase. The ELISA only detected cleavage following Leu 596 at the substrate's Swedish APP 751 mutation site.
Compounds were diluted in a 1:1 dilution series to a six-point concentration curve (two wells per concentration) which took up one 96-plate row per compound tested.
Each of the test compounds was weighed out into a vial and DMSO was added to make up a 10 mM solution. To obtain a final compound concentration of 200 μM at the high point of a 6-point dilution curve, 100 μL of the 10 mM solution was added to well C1 of a 96-well V-bottom plate. Fifty μL of DMSO was added to odd wells of row C across the plate and 1:1 serial dilutions were made. 10 μL of each dilution was added to each of two wells on row C of a corresponding V-bottom plate to which 190 μL of 52 mM NaOAc/7.9% DMSO, pH 4.5 were pre-added. The NaOAc diluted compound plate was spun down to pellet precipitant and 20 μL/well was transferred to a corresponding flat-bottom plate to which 30 μL of ice-cold enzyme-substrate mixture (2.5 μL MBP-C125 substrate, 0.03 μL enzyme and 24.5 ice cold 0.09% TX100 per 30 μl) was added. The compound concentration in the final enzyme reaction was thus 50 times less than the starting concentration. The final reaction mixture of 200 μM compound for the highest curve point was in 5% DMSO, 20 mM NaAc, 0.06% TX100, at pH 4.5. The enzyme reaction was started by warming the plates to 37° C. After 90 minutes at 37° C., 200 μL/well cold specimen diluent was added to stop the reaction and 20 μL/well was transferred to a corresponding α-MBP coated ELISA plate, containing 80 μL/well specimen diluent. This reaction was incubated overnight at 4° C. and the ELISA was developed the next day using a 2 hr. incubation with α-192SW followed by Streptavidin-AP conjugate and flourescent substrate. The signal was read on a fluorescent plate reader.

β-secretase = β-secretase (Homo sapiens, UniProt P56817); experiment: assays with β-secretase (pepstatin remark); type: biochemical
β-secretase, sequence (P56817 46-501): as above

| Compound | pIC50 (Human brain β-Secretase) | inhibitory activity in assays with β-secretase (β-secretase) |
| --- | --- | --- |
| CSCCC(NC(=O)C(NC(=O)OC(C)(C)C)C(C)C)C(=O)NC(CC(C)C)C(O)CC(=O)NC(C(=O)NC(C)c1ccc(C(=O)O)cc1)C(C)C (centres unmarked) [Example 31] | 4.00 to 5.00 | – |
| CSCCC(NC(=O)C(NC(=O)OC(C)(C)C)C(C)C)C(=O)NC(CC(C)C)C(O)CC(=O)NC(C(=O)NC(C(=O)O)c1ccccc1)C(C)C (centres unmarked) [Example 35] (Boc-VM[X1]V[Phg]-OH; configuration not given here) | 4.00 to 5.00 | – |
| CSCCC(NC(=O)C(NC(=O)OC(C)(C)C)C(C)C)C(=O)NC(CC(C)C)C(O)CC(=O)NC(C(=O)NCCc1ccc(O)c([N+](=O)[O-])c1)C(C)C (centres unmarked) [Example 36] | > 5.00 | – |
| CC(C)CC(NC(=O)C(NC(=O)C(NC(=O)OC(C)(C)C)C(C)C)c1ccccc1)C(O)CC(=O)NC(C(=O)NCc1ccc(C(=O)O)cc1)C(C)C (centres unmarked) [Example 39] | 4.00 to 5.00 | – |
| CC(C)CC(=O)N[C@H](C(=O)N[C@H](C(=O)N[C@@H](CC(C)C)[C@@H](O)CC(=O)N[C@@H](C)C(=O)N[C@@H](CC(C)C)[C@@H](O)CC(=O)O)C(C)C)C(C)C [pepstatin] (Isovaleryl-VV[Sta]A[Sta]-OH) | – | no inhibitory activity |

Second part, the molecule after the results:

| pIC50 (Human brain β-Secretase) | inhibitory activity in assays with β-secretase (β-secretase) | Compound |
| --- | --- | --- |
| > 5.00 | – | CSCCC(NC(=O)C(NC(=O)OC(C)(C)C)C(C)C)C(=O)NC(CC(C)C)C(O)CC(=O)NC(C(=O)NC1CCC(C(=O)O)C(C(=O)O)C1)C(C)C (centres unmarked) [Example 32] |
| > 5.00 | – | CC(=O)NC(C(=O)NC(C(=O)NC(Cc1ccccc1)C(O)CC(=O)NC(C(=O)NCc1ccc(C(=O)O)cc1)C(C)C)c1ccccc1)C(C)C (centres unmarked) [Example 37] |
| 4.00 to 5.00 | – | CC(C)CC(NC(=O)C(NC(=O)C(NC(=O)OCc1ccccc1)C(C)C)c1ccccc1)C(O)CC(=O)NC(C(=O)NCc1ccc(C(=O)O)cc1)C(C)C (centres unmarked) [Example 38] |
